Where two headings read alike, the source gives them in different places. Marks after values point to notes of the source that are not given here.
Legend:
Format in all cases: cell-based
keratinocytes [1] = test: Toxicity evaluation on keratinocytes, Hoescht (number of cells); conditions: for Hoescht % Change: percent of negative controle
fibroblasts [2] = test: Toxicity evaluation on fibroblasts, Hoescht (number of cells); conditions: for Hoescht % Change: percent of negative controle
keratinocytes [3] = test: Variation of the incorporation of BrdU, keratinocytes with palmatine or berberine; conditions: 48 hours of contact
keratinocytes [4] = test: Toxicity evaluation on keratinocytes, MTT (mitochondrial respiration); conditions: for MTT % Change: percent of negative controle
fibroblasts [5] = test: Toxicity evaluation on fibroblasts, MTT (mitochondrial respiration); conditions: for MTT % Change: percent of negative controle
[6] = system: Normal human keratinocytes (KHN); test: Antiproliferative effect: BrdU incorporation by human keratinocytes (ELISA); conditions: for % incorporation of BrdU/control: 48 hours, 10% FCS; for effect on proliferation of keratinocytes (in words): dose-dependent mitotic decrease
Procedure: This test is based on the determination of the cellular growth rate. Cells are cultivated in complete medium enriched in FCS (10%) so as to obtain a population in active growth, Mitotic activity is assessed by the incorporation of a nucleotide base analog in DNA during replication: […] replaces thymidine. With a product slowing mitosis, a decrease in BrdU incorporation in cell DNA is to be expected.
Normal human keratinocytes (KHN) cultured with 10% FCS were incubated in the presence or absence of palmatine, or chelidonine at various concentrations for 48 hours.
After the first 24 hours, BrdU was added to the culture medium and the mitosis marker was allowed to act for 24 hours.
After 48 hours, the cells were lysed and the BrdU incorporation rate was determined by an ELISA method.

[7] = keratinocytes, at the tested concentrations
[8] = keratinocytes, concentration 3.10^E−4%
[9] = keratinocytes, concentration 10^E−3%
[10] = fibroblasts, at the tested concentrations
[11] = fibroblasts, concentration 3.10^E−4%
[12] = fibroblasts, concentration 9.10^E−4%

COc1ccc2cc3[n+](cc2c1OC)CCc1cc2c(cc1-3)OCO2 [BERBERINE, berberine]
effect on the number of keratinocytes (in words) (keratinocytes [1]): a decrease on the number of keratinocytes
effect on the number of fibroblasts (in words) (fibroblasts [2]): a decrease on the number of fibroblasts
% Change of the incorporation of BrdU (keratinocytes [3]; concentration 3.10^E−4%): −36%**
% Change of the incorporation of BrdU (keratinocytes [3]; concentration 10^E−3%): −65%**
change of the mitochondrial respiration (in words) (keratinocytes [4]): engenders a change of the mitochondrial respiration
toxicity on keratinocytes (conclusion in words) (keratinocytes [4]): toxic effect
change of the mitochondrial respiration (in words) (fibroblasts [5]): engenders a change of the mitochondrial respiration
toxicity on fibroblasts (conclusion in words) (fibroblasts [5]): toxic effect on fibroblasts

CN1Cc2c(ccc3c2OCO3)[C@@H]2[C@H]1c1cc3c(cc1C[C@@H]2O)OCO3 [Chelidonine, chelidonine]
% incorporation of BrdU/control ([6]; concentration 3 × 10E−4%): −41%
% incorporation of BrdU/control ([6]; concentration 10E−4%): −31%
% incorporation of BrdU/control ([6]; concentration 10 × 10E−4%): −74%
effect on proliferation of keratinocytes (in words) [6]: inhibit the proliferation of keratinocytes

COc1cc2c(cc1OC)-c1cc3ccc(OC)c(OC)c3c[n+]1CC2 [palmatine]
effect on the number of keratinocytes (in words) (keratinocytes [1]; [7]): does not act on the number of keratinocytes
Hoescht % Change (keratinocytes [1]; [8]): −1 dns %
Hoescht % Change (keratinocytes [1]; [9]): −2 dns %
effect on the number of fibroblasts (in words) (fibroblasts [2]; [10]): does not act on the number of fibroblasts
Hoescht % Change (fibroblasts [2]; [11]): 1dns %
Hoescht % Change (fibroblasts [2]; [12]): −1 dns %
% incorporation of BrdU/control ([6]; concentration 3 × 10E−4%): −35%
% incorporation of BrdU/control ([6]; concentration 10E−4%): −21%
% incorporation of BrdU/control ([6]; concentration 10 × 10E−4%): −58%
effect on proliferation of keratinocytes (in words) [6]: inhibit the proliferation of keratinocytes
% Change of the incorporation of BrdU (keratinocytes [3]; concentration 3.10^E−4%): −16%**
% Change of the incorporation of BrdU (keratinocytes [3]; concentration 10^E−3%): −21%**
change of the mitochondrial respiration (in words) (keratinocytes [4]; [7]): does not engender a change of the mitochondrial respiration
MTT % Change (keratinocytes [4]; [8]): 7 dns %
MTT % Change (keratinocytes [4]; [9]): 5 dns %
toxicity on keratinocytes (conclusion in words) (keratinocytes [4]; keratinocytes, with respect to the different results): not toxic
toxicity on fibroblasts (conclusion in words) (fibroblasts [5]; fibroblasts, MTT and Hoescht): not toxic on fibroblasts
change of the mitochondrial respiration (in words) (fibroblasts [5]; [10]): does not engender a change of the mitochondrial respiration
MTT % Change (fibroblasts [5]; [11]): 0 dns %
MTT % Change (fibroblasts [5]; [12]): −9 dns %

Source: patent US8846019B2, “Use of protoberberines as an active substance regulating the pilosebaceous unit” (Sederma, priority 2005, dated 2014)
